In patent US6498243B1, “Epimorphin antagonist and process for producing it” (Sumitomo Electric Industries, Ltd., priority 1996, dated 2002):

What was measured:
Assay type in all cases: cell-based
[1] = tested on: hair follicle morphogenetic action of epimorphin on a maxillary skin; test: Inhibitory action on morphogenesis of maxillary skin (hair follicle), organ culture; details: 0.35 mg/ml in DH medium; ICR mouse fetal maxillary skin (13 days of gestation); 3 days of culture; 5% CO2 at 37° C.
Description: (§1) A maxillary skin was removed from the fetus of the ICR pregnant mouse (Nippon Charles River, 13 days of gestation) under a stereoscopic microscope. The maxillary skin taken was placed on Nuclepore membrane filter (SN 110419) floated on a culture medium (DH medium, or 0.35 mg/ml polypeptide A-containing DH medium). Organ culture was performed in 5% CO2 at 37° C. to investigate the effect of polypeptide A on the morphogenesis of the hair follicle. […] This manner of inhibition of morphogenesis was exactly the same as in treatment with MC-1, i.e., antibodies inhibiting the function of epimorphin.

[2] = tested on: cell strain C3H/10T1/2clone8; test: Cell adhesion to coated dishes (O.D. at 260 nm of bound cells); details: one hour; for cell adhesion compared with modified epimorphins: coated dishes, C3H/10T1/2clone8 cells; for O.D. at 260 nm (number of the cells bound to the dishes, indicator of cell adhesion): specimen coated on suspension culture dishes, C3H/10T1/2clone8 cells in DH medium with 20 mg/ml bovine serum albumin, control (untreated) 0.0194
Source text: The polypeptides A, B and C of the present invention obtained in Example 1, and the modified epimorphins (fragment (123) and fragment (2), each having the same cell adhesion capacity as that of natural type epimorphin) were coated on suspension culture medium dishes. After drying, the dishes were washed once with 8M urea/lysis buffer. Then, the dishes were washed 5 times with PBS^−, and the cell strain C3H/10T1/2clone8 (Dainippon Pharmaceutical Co., Ltd., 08-226) was sprinkled on the dishes using D-MEM/F-12 culture medium (GIBCO BRL, 12400-024; hereinafter called “DH medium”) containing 20 mg/ml bovine serum albumin (SIGMA, A-7030). One hour later, the dishes were washed 3 times with PBS^−, and then the cells were collected using 0.5N NaOH. The O.D. at 260 nm was measured to determine the number of the cells bound to the dishes. The cell count was used as an indicator of the cell adhesion of each specimen. The O.D.'s found were 1.5237 for polypeptide A, 1.4251 for polypeptide B, 1.4697 for polypeptide C, 1.4959 for fragment (123), 1.4478 for fragment (2), and 0.0194 for control (untreated).

[3] = tested on: morphogenetic action of epimorphin on a pulmonary primordium; test: Inhibitory action on morphogenesis of bronchus, organ culture of pulmonary primordium; details: 0.35 mg/ml in DH medium; ICR mouse fetal pulmonary primordium (12 days of gestation); 3 days of culture; 5% CO2 at 37° C.
Description: as §1, with “pulmonary primordium” for “maxillary skin”, “12” for “13”, “bronchus.” for “hair follicle.”

| Substance | morphogenesis of hair follicles [1] | cell adhesion compared with modified epimorphins [2] | O.D. at 260 nm (number of the cells bound to the dishes, indicator of cell adhesion) [2] | morphogenesis of the bronchus [3] |
| --- | --- | --- | --- | --- |
| polypeptide A: 19 amino acids, 1st (N-terminal) to 19th of the functional domain (SEQ ID NO: 8) of natural type mouse epimorphin, chemically synthesized (NGNRTSVDLRIRRTQHSVL; listed as Mus musculus) | markedly inhibited | cell adhesion comparable to that of the modified epimorphins | 1.5237 | markedly inhibited |
| polypeptide B: 39 amino acids, 1st (N-terminal) to 39th of the functional domain (SEQ ID NO: 8) of natural type mouse epimorphin (NGNRTSVDLRIRRTQHSVLSRKFVDVMAEYNEAQILFRE; listed as Mus musculus) | – | cell adhesion comparable to that of the modified epimorphins | 1.4251 | – |
| polypeptide C: 41 amino acids, 1st (N-terminal) to 41st of the functional domain (SEQ ID NO: 8) of natural type mouse epimorphin (NGNRTSVDLRIRRTQHSVLSRKFVDVMAEYNEAQILFRERS; listed as Mus musculus) | – | cell adhesion comparable to that of the modified epimorphins | 1.4697 | – |
